Source: patent US20250152585A1, “PHARMACEUTICAL COMPOUND” (Duke Street Bio Limited, priority 2022, published 2025)
Where two headings read alike, the source gives them in different places.

What was measured:
[1] = target: T1, N-terminally FLAG-tagged PARP2 (amino acids 1-583) (Homo sapiens, UniProt Q9UGN5); assay: PARP2 probe displacement HTRF assay; assay type: binding; settings: binned Kd
T1 construct: N-terminally FLAG-tagged PARP2 (amino acids 1-583)
Description: Data analysis was performed identical as for PARP1.

[2] = target: T2, full length N-terminally FLAG-tagged PARP1 (Homo sapiens, UniProt P09874); assay: PARP1 probe displacement HTRF assay; settings: for Selectivity: PARP1 over PARP2, ratio Kd (PARP2)/Kd (PARP1); for Kd: binned Kd
[3] = target: T2, full length N-terminally FLAG-tagged PARP1; assay: PARP1 biochemical DELFIA assay (auto-PARylation); set-up: recombinant full length human N-terminally FLAG-tagged PARP1
[4] = read-out: PARP1 HTRF, PARP1 probe displacement HTRF
[5] = binned IC50, PARP1 biochemical DELFIA assay
[6] = PARP1 HTRF, PARP1 probe displacement HTRF
[7] = read-out: PARP1 HTRF, probe displacement HTRF
[8] = binned IC50, biochemical auto-PARylation assay

T1 sequence (Q9UGN5 whole entry, the tested form may be a part): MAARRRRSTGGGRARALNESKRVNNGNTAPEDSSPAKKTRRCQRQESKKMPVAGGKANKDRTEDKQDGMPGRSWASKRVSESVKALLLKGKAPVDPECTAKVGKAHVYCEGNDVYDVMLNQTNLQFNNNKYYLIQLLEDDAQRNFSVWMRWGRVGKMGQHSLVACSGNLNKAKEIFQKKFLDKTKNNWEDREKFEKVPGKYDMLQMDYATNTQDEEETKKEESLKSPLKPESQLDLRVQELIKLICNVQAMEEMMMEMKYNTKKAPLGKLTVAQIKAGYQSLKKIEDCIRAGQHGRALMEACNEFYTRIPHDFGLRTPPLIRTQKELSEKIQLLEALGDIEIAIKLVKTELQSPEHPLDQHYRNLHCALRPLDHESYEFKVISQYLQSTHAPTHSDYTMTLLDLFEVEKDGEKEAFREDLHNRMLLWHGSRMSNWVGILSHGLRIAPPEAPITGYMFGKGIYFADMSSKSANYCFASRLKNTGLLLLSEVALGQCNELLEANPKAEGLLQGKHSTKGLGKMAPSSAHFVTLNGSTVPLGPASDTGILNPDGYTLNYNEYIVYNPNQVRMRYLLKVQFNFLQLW
T2 sequence (P09874 whole entry): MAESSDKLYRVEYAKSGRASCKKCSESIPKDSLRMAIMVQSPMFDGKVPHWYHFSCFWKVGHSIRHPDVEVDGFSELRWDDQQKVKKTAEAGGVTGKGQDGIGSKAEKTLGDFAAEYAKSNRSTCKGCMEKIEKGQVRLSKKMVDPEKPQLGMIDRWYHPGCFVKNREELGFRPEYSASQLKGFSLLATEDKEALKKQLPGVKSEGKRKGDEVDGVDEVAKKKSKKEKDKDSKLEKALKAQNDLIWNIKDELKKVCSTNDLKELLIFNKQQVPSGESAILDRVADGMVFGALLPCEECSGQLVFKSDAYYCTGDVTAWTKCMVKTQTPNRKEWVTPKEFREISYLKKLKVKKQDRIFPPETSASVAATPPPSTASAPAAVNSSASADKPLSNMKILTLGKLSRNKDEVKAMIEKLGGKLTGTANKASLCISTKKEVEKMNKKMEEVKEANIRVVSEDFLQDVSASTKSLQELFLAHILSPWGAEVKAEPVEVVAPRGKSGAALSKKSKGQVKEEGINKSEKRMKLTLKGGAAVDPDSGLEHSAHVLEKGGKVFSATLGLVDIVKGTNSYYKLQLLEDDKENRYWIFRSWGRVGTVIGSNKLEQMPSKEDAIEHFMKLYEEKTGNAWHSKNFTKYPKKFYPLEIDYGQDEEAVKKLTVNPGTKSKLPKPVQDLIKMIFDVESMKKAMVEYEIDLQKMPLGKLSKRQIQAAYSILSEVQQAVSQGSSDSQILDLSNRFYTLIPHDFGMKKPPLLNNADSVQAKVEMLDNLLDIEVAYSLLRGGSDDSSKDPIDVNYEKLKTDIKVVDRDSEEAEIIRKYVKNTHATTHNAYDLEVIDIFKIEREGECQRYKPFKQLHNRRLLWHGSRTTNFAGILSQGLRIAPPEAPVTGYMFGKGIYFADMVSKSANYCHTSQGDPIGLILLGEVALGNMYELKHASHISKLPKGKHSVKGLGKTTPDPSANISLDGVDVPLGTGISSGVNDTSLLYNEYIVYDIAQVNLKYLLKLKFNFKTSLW

Structure (SMILES)	Kd ([1]; PARP2 probe displacement HTRF) [µM]	Selectivity ([2]; probe displacement HTRF)	Kd [2, 4] [µM]	IC50 [3, 5] [µM]	Kd [2, 6] [µM]	Kd ([1]; probe displacement HTRF) [µM]	Kd [2, 7] [µM]	IC50 [3, 8] [µM]
CNC(=O)c1ccc(N2CCC(N3CCCC(c4nc5sc(C)c(C)c5c(=O)[nH]4)C3)CC2)cn1 (single isomer, unassigned) [Compound 199b]	> 10	+ (+ indicates a value of 10 to less than 50)	0.1 to 1	0.1 to 1				
CNC(=O)c1ccc(N2CCC(N3CCCC(c4ncc(C)c(=O)[nH]4)C3)CC2)cn1 (single isomer, unassigned) [Compound 33b]	> 10	++ (++ indicates a value of 50 to less than 100)	0.01 to 0.1	0.01 to 0.1				
CNC(=O)c1ccc(N2CCC(N3CCC(c4ccc(CC(F)(F)F)c(=O)[nH]4)C3)CC2)cn1 (single isomer, unassigned) [Compound 188a]	> 10	+ (+ indicates a value of 10 to less than 50)	0.1 to 1	0.1 to 1				
CCc1cnc(C2CCN(C(=O)C3CCN(c4ccc(C(=O)NC)nc4)CC3)CC2)[nH]c1=O [Compound 41]	> 10	+ (+ indicates a value of 10 to less than 50)		0.1 to 1	0.1 to 1			
CNC(=O)c1ccc(N2CCC(N3CCCC(c4nc5onc(C)c5c(=O)[nH]4)C3)CC2)cn1 (single isomer, unassigned) [Compound 159b]	> 10	+ (+ indicates a value of 10 to less than 50)	0.1 to 1	0.1 to 1				
CNC(=O)c1ccc(N2CCC(N3CCC(c4cc5[nH]nc(C(F)(F)F)c5c(=O)[nH]4)C3)CC2)cn1 (single isomer, unassigned) [Compound 194b, N-methyl-5-(4-(3-(4-oxo-3-(trifluoromethyl)-4,5-dihydro-1H-pyrazolo[4,3-c]pyridin-6-yl)pyrrolidin-1-yl)piperidin-1-yl)picolinamide]	0.01 to 0.1	+ (+ indicates a value of 10 to less than 50)		< 0.01	< 0.01			
CNC(=O)c1ccc(N2CCC(N3CCC(c4[nH]c(=O)c5cc(F)ccc5c4F)C3)CC2)cn1 (single isomer, unassigned) [Compound 370b]		++ (++ indicates a value of 50 to less than 100)				0.01 to 0.1	< 0.01	< 0.01
CNC(=O)c1ccc(N2CCC(N3CCC(c4cc5c(C(F)(F)F)nn(C)c5c(=O)[nH]4)C3)CC2)cn1 (racemic) [Compound 392rac]		+ (+ indicates a value of 10 to less than 50)				> 10	0.1 to 1	0.1 to 1
CNC(=O)c1ccc(N2CCC(N3CCCC(c4nc5ccccc5c(=O)[nH]4)C3)CC2)c(F)n1 (racemic) [Compound 103rac]	1 to 10	+++ (+++ indicate a value of at least 100)	< 0.01	< 0.01				
CNC(=O)c1ccc(N2CCC(N3CCC(c4cc5cc(OC)ccc5c(=O)[nH]4)C3)CC2)cn1 (racemic) [Compound 334rac]		++ (++ indicates a value of 50 to less than 100)				1 to 10	0.01 to 0.1	< 0.01
CNC(=O)c1ccc(N2CCC(N3CCCC(c4nc5cnccc5c(=O)[nH]4)C3)CC2)cn1 (single isomer, unassigned) [Compound 106b]	> 10	− (− indicates a value of less than 10)	> 10	1 to 10				
CNC(=O)c1cc(C(F)(F)F)c(N2CCC(N3CCC(c4cc5cccc(F)c5c(=O)[nH]4)C3)CC2)cn1 (single isomer, unassigned) [Compound 308b]		+++ (+++ indicate a value of at least 100)				0.1 to 1	< 0.01	< 0.01
CCc1ccc(C2CCN(C3CCN(c4ccc(C#N)cc4)CC3)C2)[nH]c1=O (single isomer, unassigned) [Compound 317b]		+++ (+++ indicate a value of at least 100)				0.1 to 1	< 0.01	< 0.01
CNC(=O)c1ccc(N2CCC(N3CCC(c4cc5[nH]nc(C(F)(F)F)c5c(=O)[nH]4)C3)CC2)c(F)n1 (single isomer, unassigned) [Compound 280b]		++ (++ indicates a value of 50 to less than 100)				0.01 to 0.1	< 0.01	< 0.01
CNC(=O)c1ccc(N2CC(N3CCC(c4nc5ccccc5c(=O)[nH]4)C3)C2)cn1 (single isomer, unassigned) [Compound 61a]	1 to 10	+ (+ indicates a value of 10 to less than 50)	0.01 to 0.1	0.1 to 1				
CCc1ccc(C2CCN(C3CCN(c4ccc(C(=O)NCC(F)F)nc4F)CC3)C2)[nH]c1=O (single isomer, unassigned) [Compound 398b]		+++ (+++ indicate a value of at least 100)				0.1 to 1	< 0.01	< 0.01
CCNC(=O)c1ccc(N2CCC(N3CCCC(c4nc5ccccc5c(=O)[nH]4)C3)CC2)cn1 (single isomer, unassigned) [Compound 122b]	1 to 10	− (− indicates a value of less than 10)	0.1 to 1	0.01 to 0.1				
CNC(=O)c1ccc(N2CCC(N3CCC(C)(c4nc5ccccc5c(=O)[nH]4)C3)CC2)cn1 (single isomer, unassigned) [Compound 67b]	1 to 10	+ (+ indicates a value of 10 to less than 50)	0.1 to 1	0.1 to 1				
CNC(=O)c1ccc(N2CCC(N3CCC(c4nc5onc(C(F)(F)F)c5c(=O)[nH]4)C3)CC2)cn1 (single isomer, unassigned) [Compound 176b]	> 10	++ (++ indicates a value of 50 to less than 100)	0.1 to 1	0.01 to 0.1				
CNC(=O)c1ccc(N2CCC(N3CCC(c4ccc(OC)c(=O)[nH]4)C3)CC2)cn1 (single isomer, unassigned) [Compound 148b]	> 10	− (− indicates a value of less than 10)	1 to 10	1 to 10				
CNC(=O)c1ccc(N2CCC(N3CCC(c4nc5ccccc5c(=O)[nH]4)C3)CC2)c(C(F)F)n1 (single isomer, unassigned) [Compound 158b]	1 to 10	+++ (+++ indicate a value of at least 100)	0.01 to 0.1	0.01 to 0.1				
CNC(=O)c1ccc(N2CCC(N3CCC(c4nc5[nH]nc(C(F)(F)F)c5c(=O)[nH]4)C3)CC2)cn1 (single isomer, unassigned) [Compound 162a, N-methyl-5-(4-(3-(4-oxo-3-(trifluoromethyl)-4,5-dihydro-1H-pyrazolo[3,4-d]pyrimidin-6-yl)pyrrolidin-1-yl)piperidin-1-yl)picolinamide]	0.1 to 1	− (− indicates a value of less than 10)		0.01 to 0.1	0.01 to 0.1			
CNC(=O)c1ccc(N2CCC(N3CCC(c4ccc(CC5CC5)c(=O)[nH]4)C3)CC2)c(F)n1 (single isomer, unassigned) [Compound 313a]		+++ (+++ indicate a value of at least 100)				> 10	0.01 to 0.1	0.01 to 0.1
CNC(=O)c1ccc(N2CCC(N3CCCC(c4nc5ccccc5c(=O)[nH]4)CC3)CC2)cn1 (racemic) [Compound 102rac]	1 to 10	+++ (+++ indicate a value of at least 100)	< 0.01	< 0.01				
CCCc1ccc(C2CCN(C3CCN(c4ccc(C(=O)NC)nc4F)CC3)C2)[nH]c1=O (single isomer, unassigned) [Compound 269b]		+ (+ indicates a value of 10 to less than 50)				> 10	0.1 to 1	0.1 to 1
CNC(=O)c1ccc(N2CCC(N3CCCC(c4ncc(CC(F)(F)F)c(=O)[nH]4)C3)CC2)cn1 (single isomer, unassigned) [Compound 212b]	> 10	− (− indicates a value of less than 10)	> 10	> 10				
CNC(=O)c1ccc(N2CCC(CN3CCC(c4nc5c(Cl)cccc5c(=O)[nH]4)CC3)CC2)cn1 [Compound 40, 5-(4-((4-(8-chloro-4-oxo-3,4-dihydroquinazolin-2-yl)piperidin-1-yl)methyl)piperidin-1-yl)-N-methylpicolinamide]	0.1 to 1	++ (++ indicates a value of 50 to less than 100)		< 0.01	< 0.01			
CNC(=O)c1ccc(N2CCC(N3CCC(Cc4nc5ccccc5c(=O)[nH]4)CC3)CC2)cn1 [Compound 54, N-methyl-5-(4-{4-[(4-oxo-3H-quinazolin-2-yl)methyl]piperidin-1-yl}piperidin-1-yl)pyridine-2-carboxamide]	0.1 to 1	+++ (+++ indicate a value of at least 100)		< 0.01	< 0.01			
CNC(=O)c1ccc(N2CCC(N3CCCC(c4nc5c(c(C(F)(F)F)nn5C)c(=O)[nH]4)C3)CC2)cn1 (single isomer, unassigned) [Compound 190b]	0.01 to 0.1	++ (++ indicates a value of 50 to less than 100)	< 0.01	< 0.01				
N#Cc1ccc(N2CCC(N3CCCC(c4nc5ccccc5c(=O)[nH]4)C3)CC2)nc1 (single isomer, unassigned) [Compound 74a]	1 to 10	+ (+ indicates a value of 10 to less than 50)	0.1 to 1	0.1 to 1				
